Laboratory results taken from paper PMC8765783, “Identification of the potential active site of the septal peptidoglycan polymerase FtsW” (PLoS Genetics, 2022).

Assays:
Test in all cases: fluorescence anisotropy
Format in all cases: binding
Settings in all cases: 50 mM Hepes pH 7.5, 0.1 M NaCl, 0.005% DDM, 0.2% CHAPS, 21°C, 0.33 μM probe; labelled compound
[1] = target: T1, HisFtsW-FtsI(PBP3) complex (FtsW-FtsI/PBP3, "W 3") (Escherichia coli, UniProt P0ABG4)
T1 construct: His-tagged FtsW co-expressed with untagged FtsI/PBP3 from pDML2041 in E. coli C43(DE3); DDM-solubilised membranes, HisTrap, G25 desalting; tag kept; with Peptidoglycan D,D-transpeptidase FtsI
T1 sequence (P0ABG4 1-414): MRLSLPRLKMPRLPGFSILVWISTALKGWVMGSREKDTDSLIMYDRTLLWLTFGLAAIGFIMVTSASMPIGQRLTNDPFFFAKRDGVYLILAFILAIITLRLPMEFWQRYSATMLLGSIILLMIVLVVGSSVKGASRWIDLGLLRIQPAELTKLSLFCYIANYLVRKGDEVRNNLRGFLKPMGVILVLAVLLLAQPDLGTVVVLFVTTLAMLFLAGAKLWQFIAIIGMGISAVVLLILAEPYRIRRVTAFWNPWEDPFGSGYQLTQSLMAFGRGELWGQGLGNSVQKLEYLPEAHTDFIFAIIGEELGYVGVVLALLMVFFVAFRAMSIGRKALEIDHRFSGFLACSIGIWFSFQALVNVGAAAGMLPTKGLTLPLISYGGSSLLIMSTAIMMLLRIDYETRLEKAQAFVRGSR
T1 sequence (P0AD68 1-577 partner): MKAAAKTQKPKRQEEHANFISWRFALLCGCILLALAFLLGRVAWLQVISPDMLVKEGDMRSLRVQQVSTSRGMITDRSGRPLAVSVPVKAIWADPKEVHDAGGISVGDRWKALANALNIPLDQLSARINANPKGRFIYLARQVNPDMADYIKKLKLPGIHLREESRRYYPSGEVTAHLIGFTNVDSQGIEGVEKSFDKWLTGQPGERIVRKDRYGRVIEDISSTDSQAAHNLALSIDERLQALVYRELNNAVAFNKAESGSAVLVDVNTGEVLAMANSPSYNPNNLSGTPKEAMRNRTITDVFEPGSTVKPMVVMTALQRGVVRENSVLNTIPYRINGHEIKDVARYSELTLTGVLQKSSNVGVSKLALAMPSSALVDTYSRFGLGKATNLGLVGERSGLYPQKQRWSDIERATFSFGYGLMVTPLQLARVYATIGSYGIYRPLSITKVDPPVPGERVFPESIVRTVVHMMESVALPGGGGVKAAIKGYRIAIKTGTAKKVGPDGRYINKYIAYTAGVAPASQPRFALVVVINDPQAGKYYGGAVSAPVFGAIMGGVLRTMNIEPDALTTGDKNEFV

[2] = target: T2, HisFtsW-FtsI(PBP3) complex (FtsW-FtsI/PBP3, "W 3") (Escherichia coli, UniProt P0ABG4, A135T)
T2 construct: His-tagged FtsW co-expressed with untagged FtsI/PBP3 from pDML2041 in E. coli C43(DE3); DDM-solubilised membranes, HisTrap, G25 desalting; tag kept; with Peptidoglycan D,D-transpeptidase FtsI
T2 sequence (P0ABG4 1-414 A135T): T1 sequence (P0ABG4 1-414)
T2 sequence (P0AD68 1-577 partner): T1 sequence (P0AD68 1-577 partner)
Text: (§1) fluorescence anisotropy on HisFtsW-FtsI(PBP3) complex (FtsW-FtsI/PBP3, "W 3")

[3] = target: T3, HisFtsW-FtsI(PBP3) complex (FtsW-FtsI/PBP3, "W 3") (Escherichia coli, UniProt P0ABG4, D297A)
T3 construct: His-tagged FtsW co-expressed with untagged FtsI/PBP3 from pDML2041 in E. coli C43(DE3); DDM-solubilised membranes, HisTrap, G25 desalting; tag kept; with Peptidoglycan D,D-transpeptidase FtsI
T3 sequence (P0ABG4 1-414 D297A): T1 sequence (P0ABG4 1-414)
T3 sequence (P0AD68 1-577 partner): T1 sequence (P0AD68 1-577 partner)
Text: as §1

[4] = target: T4, HisFtsW-FtsI(PBP3) complex (FtsW-FtsI/PBP3, "W 3") (Escherichia coli, UniProt P0ABG4, G199A)
T4 construct: His-tagged FtsW co-expressed with untagged FtsI/PBP3 from pDML2041 in E. coli C43(DE3); DDM-solubilised membranes, HisTrap, G25 desalting; tag kept; with Peptidoglycan D,D-transpeptidase FtsI
T4 sequence (P0ABG4 1-414 G199A): T1 sequence (P0ABG4 1-414)
T4 sequence (P0AD68 1-577 partner): T1 sequence (P0AD68 1-577 partner)
Text: as §1

[5] = target: T5, HisFtsW-FtsI(PBP3) complex (FtsW-FtsI/PBP3, "W 3") (Escherichia coli, UniProt P0ABG4, G371S)
T5 construct: His-tagged FtsW co-expressed with untagged FtsI/PBP3 from pDML2041 in E. coli C43(DE3); DDM-solubilised membranes, HisTrap, G25 desalting; tag kept; with Peptidoglycan D,D-transpeptidase FtsI
T5 sequence (P0ABG4 1-414 G371S): T1 sequence (P0ABG4 1-414)
T5 sequence (P0AD68 1-577 partner): T1 sequence (P0AD68 1-577 partner)
Text: as §1

[6] = target: T6, HisFtsW-FtsI(PBP3) complex (FtsW-FtsI/PBP3, "W 3") (Escherichia coli, UniProt P0ABG4, G381D)
T6 construct: His-tagged FtsW co-expressed with untagged FtsI/PBP3 from pDML2041 in E. coli C43(DE3); DDM-solubilised membranes, HisTrap, G25 desalting; tag kept; with Peptidoglycan D,D-transpeptidase FtsI
T6 sequence (P0ABG4 1-414 G381D): T1 sequence (P0ABG4 1-414)
T6 sequence (P0AD68 1-577 partner): T1 sequence (P0AD68 1-577 partner)
Text: as §1

[7] = target: T7, HisFtsW-FtsI(PBP3) complex (FtsW-FtsI/PBP3, "W 3") (Escherichia coli, UniProt P0ABG4, P196T)
T7 construct: His-tagged FtsW co-expressed with untagged FtsI/PBP3 from pDML2041 in E. coli C43(DE3); DDM-solubilised membranes, HisTrap, G25 desalting; tag kept; with Peptidoglycan D,D-transpeptidase FtsI
T7 sequence (P0ABG4 1-414 P196T): T1 sequence (P0ABG4 1-414)
T7 sequence (P0AD68 1-577 partner): T1 sequence (P0AD68 1-577 partner)
Text: as §1

[8] = target: T8, HisFtsW-FtsI(PBP3) complex (FtsW-FtsI/PBP3, "W 3") (Escherichia coli, UniProt P0ABG4, Q147E)
T8 construct: His-tagged FtsW co-expressed with untagged FtsI/PBP3 from pDML2041 in E. coli C43(DE3); DDM-solubilised membranes, HisTrap, G25 desalting; tag kept; with Peptidoglycan D,D-transpeptidase FtsI
T8 sequence (P0ABG4 1-414 Q147E): T1 sequence (P0ABG4 1-414)
T8 sequence (P0AD68 1-577 partner): T1 sequence (P0AD68 1-577 partner)
Text: as §1

[9] = target: T9, HisFtsW-FtsI(PBP3) complex (FtsW-FtsI/PBP3, "W 3") (Escherichia coli, UniProt P0ABG4, R243L)
T9 construct: His-tagged FtsW co-expressed with untagged FtsI/PBP3 from pDML2041 in E. coli C43(DE3); DDM-solubilised membranes, HisTrap, G25 desalting; tag kept; with Peptidoglycan D,D-transpeptidase FtsI
T9 sequence (P0ABG4 1-414 R243L): T1 sequence (P0ABG4 1-414)
T9 sequence (P0AD68 1-577 partner): T1 sequence (P0AD68 1-577 partner)
Text: as §1

[10] = target: T10, HisFtsW-FtsI(PBP3) complex (FtsW-FtsI/PBP3, "W 3") (Escherichia coli, UniProt P0ABG4, W138A)
T10 construct: His-tagged FtsW co-expressed with untagged FtsI/PBP3 from pDML2041 in E. coli C43(DE3); DDM-solubilised membranes, HisTrap, G25 desalting; tag kept; with Peptidoglycan D,D-transpeptidase FtsI
T10 sequence (P0ABG4 1-414 W138A): T1 sequence (P0ABG4 1-414)
T10 sequence (P0AD68 1-577 partner): T1 sequence (P0AD68 1-577 partner)
Text: as §1

[11] = target: T11, HisFtsW-FtsI(PBP3) complex (FtsW-FtsI/PBP3, "W 3") (Escherichia coli, UniProt P0ABG4, Y242H)
T11 construct: His-tagged FtsW co-expressed with untagged FtsI/PBP3 from pDML2041 in E. coli C43(DE3); DDM-solubilised membranes, HisTrap, G25 desalting; tag kept; with Peptidoglycan D,D-transpeptidase FtsI
T11 sequence (P0ABG4 1-414 Y242H): T1 sequence (P0ABG4 1-414)
T11 sequence (P0AD68 1-577 partner): T1 sequence (P0AD68 1-577 partner)
Text: as §1

With CC(=O)N[C@H]1[C@H](O[C@H]2[C@H](O[C@H](C)C(=O)N[C@@H](C)C(=O)N[C@H](CCC(=O)N[C@@H](CCCCNc3ccc([N+](=O)[O-])c4nonc34)C(=O)N[C@H](C)C(=O)N[C@H](C)C(=O)O)C(=O)O)[C@@H](NC(C)=O)[C@@H](OP(=O)(O)OP(=O)(O)OC/C=C(/C)CC/C=C(/C)CC/C=C(/C)CC/C=C(/C)CC/C=C(/C)CC/C=C(/C)CC/C=C(/C)CC/C=C(/C)CC/C=C(\C)CC/C=C(\C)CCC=C(C)C)O[C@@H]2CO)O[C@H](CO)[C@@H](O)[C@@H]1O [NBD-lipid II] the Kd [1] was 0.13 µM, the Kd [2] was 0.06 µM and the Kd [3] was 0.09 µM. For the same compound, the Kd [4] was 0.11 µM, the Kd [5] was 0.05 µM and the Kd [6] was 0.1 µM. The Kd [7] was 0.06 µM, the Kd [8] was 0.07 µM and the Kd [9] was 0.07 µM. The Kd [10] was 0.06 µM and the Kd [11] was 0.04 µM.
